*1 amine or outer side, *2 acyl side, *3 side chain or, on linkers, in order; H or OH if unused. Where a SMILES comes first, the peptide text is derived from it. Bridges are numbered along the chain shown (N, C = ends). [ ]: non-standard residue; d: D form. 2Nal = N[C@@H](Cc1ccc2ccccc2c1)C(=O)O; AEF = NCCOc1ccc(C[C@H](N)C(=O)O)cc1; X1 = O=C(Cc1ccc(CN[*:1])cc1)[*:2]; 3Pal = N[C@@H](Cc1cccnc1)C(=O)O; αMeL = CC(C)C[C@](C)(N)C(=O)O; Dab = NCC[C@H](N)C(=O)O
What was measured:
human IL-23R = molecular target: T1, human IL-23R (Homo sapiens, UniProt Q5VWK5); assay: biochemical
T1 sequence (Q5VWK5 22-629): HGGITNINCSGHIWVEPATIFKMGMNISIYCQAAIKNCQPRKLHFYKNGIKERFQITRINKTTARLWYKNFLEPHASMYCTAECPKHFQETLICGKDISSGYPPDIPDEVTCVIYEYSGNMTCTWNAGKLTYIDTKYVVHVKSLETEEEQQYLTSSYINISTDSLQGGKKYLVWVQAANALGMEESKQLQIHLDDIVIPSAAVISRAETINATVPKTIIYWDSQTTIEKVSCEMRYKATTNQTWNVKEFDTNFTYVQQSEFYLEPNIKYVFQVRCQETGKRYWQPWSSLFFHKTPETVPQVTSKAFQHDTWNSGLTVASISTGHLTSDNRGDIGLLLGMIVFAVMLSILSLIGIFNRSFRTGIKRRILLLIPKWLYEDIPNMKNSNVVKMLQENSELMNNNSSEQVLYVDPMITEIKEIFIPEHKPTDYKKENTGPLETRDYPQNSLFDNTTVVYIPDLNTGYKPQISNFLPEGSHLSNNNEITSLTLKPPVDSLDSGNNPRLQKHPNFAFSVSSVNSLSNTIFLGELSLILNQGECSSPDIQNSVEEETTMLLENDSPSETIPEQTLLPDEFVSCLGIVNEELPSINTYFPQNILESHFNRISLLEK
Method in brief: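 BRET displacement of a TAMRA-labelled reference compound from N-terminal Nanoluc-IL-23R fusion protein in membranes from stably transfected HEK293 cells. Incubation 2 h at room temperature, then Nanoluc substrate was added and the TAMRA/Nanoluc ratio read. IC50 and maximal displacement came from 4-parameter logistic fits.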

[1] = Peptide stability in simulated intestinal fluid (SIF); type: in vitro ADME; conditions: pig, simulated intestinal fluid (SIF) with porcine pancreatin, 37 °C, pH 6.8, porcine pancreatin 10 g/L, 10 µM; for remaining at 4 h, 10 µM: read-out: SIF (% remaining 4 h)
Method in brief: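 Peptides were incubated at 37 °C with gentle shaking in pH 6.8 potassium phosphate SIF containing porcine pancreatin (10 g/L). Supernatants were analysed by LC-HRMS. Percent remaining at each timepoint, including 4 h, was calculated relative to time zero from absolute peak areas.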

[2] = Peptide stability in simulated gastric fluid (SGF); type: in vitro ADME; conditions: pig, simulated gastric fluid (SGF) with porcine pepsin, 37 °C, pH 1.2, porcine pepsin 3.2 g/L
Description: SGF was prepared by dissolving sodium chloride (0.2 g) in 50 mL of water. A volume of 0.7 mL of 10 M HCl was added to adjust the pH of the solution to 1.2 and the volume made up to 100 mL with water. […] SIF was prepared by dissolving monobasic potassium phosphate (0.68 g) in 50 mL of water and adjusting the pH to 6.8 with 1 M NaOH. The volume was subsequently made up to 100 mL with water. 200 mg porcine pancreatin (P1625, Sigma Aldrich) was gently dissolved into 20 mL preheated (37 °C) solution (10 g/L) immediately prior to the incubation.
The incubation was performed at 37 °C with gentle shaking. […] After the last timepoint, the sampling plate was mixed for 10 min on a shaking table and centrifuged 10 min at 2200 g. 70 µL resulting supernatant was diluted with 150 µL water, mixed and centrifugated before analysis by liquid chromatography high resolution mass spectrometry. […] Percent remaining at each timepoint was calculated relative to timepoint zero based on absolute peak areas.
Compounds with a SGF stability (after 4 h) above 70% are considered highly SGF stable. […] Table 3-4: SGF data

[3] = tested on: porcine pepsin (P7125, Sigma Aldrich); assay: SGF: sodium chloride, HCl, pH 1.2, with porcine pepsin (3.2 g/L); conditions: 37 °C, up to 4 hours

| Compound | not cleaved [3] | further results |
| --- | --- | --- |
| CNC(=O)[C@H](Cc1cccnc1)NC(=O)[C@@H](CO)NC(=O)[C@@H]1CCC(=O)NCc2ccc(cc2)CC(=O)N[C@@H](CO)C(=O)N[C@H]2CCC(=O)NCC[C@H](NC(=O)[C@H](CCC(N)=O)NC(=O)[C@H](Cc3c[nH]c4ccccc34)NC2=O)C(=O)N[C@@H](Cc2ccc(OCCN)cc2)C(=O)N[C@@H](Cc2ccc3ccccc3c2)C(=O)N[C@@](C)(CC(C)C)C(=O)N1 [Compound 38, [4-Aminomethyl-phenylacetyl](1c)*SE(2c)WQ[Dab](2c)[Y(2-aminoethoxy)][2-Nal][2-Me-Leu]E(1c)[{d}S][3-(3-Pyridyl)-Ala]-[NHMe]] |  | % displacement (hIL-23R binding) (human IL-23R): 102%; IC50 (human IL-23R): 0.066 nM; remaining at 4 h, 10 µM [1]: 65%; remaining at 4 h, 10 µM [2]: 91% |
| CNC(=O)[C@H](Cc1cccnc1)NC(=O)[C@](C)(CO)NC(=O)[C@@H]1CCC(=O)NCc2ccc(cc2)CC(=O)N[C@@H](CO)C(=O)N[C@H]2CCC(=O)NCC[C@H](NC(=O)[C@H](CCC(N)=O)NC(=O)[C@H](Cc3c[nH]c4ccccc34)NC2=O)C(=O)N[C@@H](Cc2ccc(OCCN)cc2)C(=O)N[C@@H](Cc2ccc3ccccc3c2)C(=O)N[C@@](C)(CC(C)C)C(=O)N1 [Compound 39, [4-Aminomethyl-phenylacetyl](1c)*SE(2c)WQ[Dab](2c)[Y(2-aminoethoxy)][2-Nal][2-Me-Leu]E(1c)[2-Me-Ser][3-(3-Pyridyl)-Ala]-[NHMe]] |  | Emax (human IL-23R; read-out: % displacement (hIL-23R binding)): 99%; remaining at 1 h, 10 µM ([1]; 1 h): 100%; remaining at 1 h, 10 µM [2]: 99% |
| CNC(=O)[C@H](Cc1cccnc1)NC(=O)[C@H](CO)NC(=O)[C@@H]1CCC(=O)NCc2ccc(cc2)CC(=O)N[C@@H](C)C(=O)N[C@H]2CCC(=O)NCC[C@H](NC(=O)[C@H](CCC(N)=O)NC(=O)[C@H](Cc3c[nH]c4ccccc34)NC2=O)C(=O)N[C@@H](Cc2ccc(OCCN)cc2)C(=O)N[C@@H](Cc2ccc3ccccc3c2)C(=O)N[C@@](C)(CC(C)C)C(=O)N1 [Compound 40, [4-Aminomethyl-phenylacetyl](1c)*AE(2c)WQ[Dab](2c)[Y(2-aminoethoxy)][2-Nal][2-Me-Leu]E(1c)S[3-(3-Pyridyl)-Ala]-[NHMe]] ([X1]AEWQ[Dab][AEF][2Nal][αMeL]ES[3Pal]-NHMe; lactam 3-6, N-10) |  | % displacement (hIL-23R binding) (human IL-23R): 100%; IC50 (human IL-23R): 0.019 nM; remaining at 4 h, 10 µM [1]: 80%; remaining at 1 h, 10 µM [2]: 89% |
| CNC(=O)[C@H](Cc1cccnc1)NC(=O)[C@H](CCN)NC(=O)[C@@H]1CCC(=O)NCc2ccc(cc2)CC(=O)N[C@@H](C)C(=O)N[C@H]2CCC(=O)NCC[C@H](NC(=O)[C@H](CCC(N)=O)NC(=O)[C@H](Cc3c[nH]c4ccccc34)NC2=O)C(=O)N[C@@H](Cc2c[nH]c3ncccc23)C(=O)N[C@@H](Cc2ccc3ccccc3c2)C(=O)NC(C)(C)C(=O)N1 [Compound 43, [4-Aminomethyl-phenylacetyl](1c)*AE(2c)WQ[Dab](2c)[7-AzaTrp][2-Nal][Aib]E(1c)[Dab][3-(3-Pyridyl)-Ala]-[NHMe]] |  | % displacement (hIL-23R binding) (human IL-23R): 101%; IC50 (human IL-23R): 0.048 nM; remaining at 4 h, 10 µM [1]: 92%; remaining at 4 h, 10 µM [2]: 98% |
| H-EC(4a)WLC(5a)YYRNC(5a)NC(4a)M-[NH2] | 99% remaining after 4 h |  |
| H-GC(1a)TC(2a)WEC(2a)WWLC(1a)S-[NH2] | 94% remaining after 4 h |  |
| [4-Aminomethyl-phenylacetyl](1c)*FE(2c)WQ[Dab](2c)[Y(2-aminoethoxy)][2-Nal][2-Me-Leu]E(1c)[Dab][3-(3-Pyridyl)-Ala] | 101% remaining after 4 h |  |
| [4-Aminomethyl-phenylacetyl](1c)*SE(2c)WQ[Dab](2c)[Y(2-aminoethoxy)][2-Nal][2-Me-Leu]E(1c)H[3-(3-Pyridyl)-Ala] | 95% remaining after 4 h |  |
| [4-Aminomethyl-phenylacetyl](1c)*SE(2c)WQ[Dab](2c)[Y(2-aminoethoxy)][2-Nal][2-Me-Leu]E(1c)Q[3-(3-Pyridyl)-Ala] | 93% remaining after 4 h |  |
| [4-Aminomethyl-phenylacetyl](1c)*SE(2c)WQ[Dab](2c)[Y(2-aminoethoxy)][2-Nal][2-Me-Leu]E(1c)S[3-(3-Pyridyl)-Ala] | 99% remaining after 4 h |  |
| [4-Aminomethyl-phenylacetyl](1c)*SE(2c)WQ[Dab](2c)[Y(2-aminoethoxy)][2-Nal][2-Me-Leu]E(1c)[2-Me-Ser][3-(3-Pyridyl)-Ala] | 96% remaining after 4 h |  |
| [4-Aminomethyl-phenylacetyl](1c)*SE(2c)WQ[Dab](2c)[Y(2-aminoethoxy)][2-Nal][2-Me-Leu]E(1c)[Dab]-[NH-(4-(pyridin-3-yl)butanyl)] | 108% remaining after 4 h |  |
| [4-Aminomethyl-phenylacetyl](1c)*SE(2c)WQ[Dab](2c)[Y(2-aminoethoxy)][2-Nal][2-Me-Leu]E(1c)[Dab]H[3-(3-Pyridyl)-Ala]-[NH2] | 93% remaining after 4 h |  |
| [4-Aminomethyl-phenylacetyl](1c)*SE(2c)WQ[Dab](2c)[Y(2-aminoethoxy)][2-Nal][2-Me-Leu]E(1c)[Dab][N-Me-3-(3-Pyridyl)-Ala]-[NH2] | 103% remaining after 4 h |  |
| [4-Aminomethyl-phenylacetyl](1c)*SE(2c)WQ[Dab](2c)[Y(2-aminoethoxy)][2-Nal][2-Me-Leu]E(1c)[Dab][{d}3-(3-Pyridyl)-Ala]-[NH2] | 105% remaining after 4 h |  |
| [4-Aminomethyl-phenylacetyl](1c)*SE(2c)WQ[Dab](2c)[Y(2-aminoethoxy)][2-Nal][2-Me-Leu]E(1c)[Nle][3-(3-Pyridyl)-Ala] | 90% remaining after 4 h |  |
| [4-Aminomethyl-phenylacetyl](1c)*SE(2c)WQ[Dab](2c)[Y(2-aminoethoxy)][2-Nal][2-Me-Leu]E(1c)[Ser(OMe)][3-(3-Pyridyl)-Ala] | 102% remaining after 4 h |  |
| [4-Aminomethyl-phenylacetyl](1c)*SE(2c)WQ[Dab](2c)[Y(2-aminoethoxy)][2-Nal][2-Me-Leu]E(1c)[hSer][3-(3-Pyridyl)-Ala] | 103% remaining after 4 h |  |
| [4-Aminomethyl-phenylacetyl](1c)*SE(2c)WQ[Dab](2c)[Y(2-aminoethoxy)][2-Nal][2-Me-Leu]E(1c)[{d}S][3-(3-Pyridyl)-Ala] | 91% remaining after 4 h |  |
| [4-Aminomethyl-phenylacetyl](1c)*SE(2c)W[K(Ac)][Dab](2c)[Y(2-aminoethoxy)][2-Nal][2-Me-Leu]E(1c)[Dab][3-(3-Pyridyl)-Ala] | 90% remaining after 4 h |  |
| [4-Aminomethyl-phenylacetyl](1c)*SE(2c)W[Q(pyrrolidin)][Dab](2c)[Y(2-aminoethoxy)][2-Nal][2-Me-Leu]E(1c)[Dab][3-(3-Pyridyl)-Ala] | 96% remaining after 4 h |  |
| [Ac]-[Abu](16i)QTWQC(16i)[Y(2-aminoethoxy)]W[2-Me-Lys]ENG-[NH2] | 100% remaining after 4 h |  |

Reference: patent EP4471049A1 (Zealand Pharma A/S, priority 2023, dated 2024)
